In ChEMBL document CHEMBL1201862, “PubChem BioAssay data set” (2004):
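Assay format: 96-well plates, 48-hour exposure. GI50 = concentration required for 50% inhibition of growth.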 Calls of active or inactive are those of the source. Cut-off read from the data, not from the text of the source: active = GI50 up to about 1.1 µM and inactive = higher.

Columns and labels:
Experiment in all cases: NCI anticancer screen, dose series, 48 h
A549 = system: A549
ACHN = system: ACHN
BT-549 = system: BT-549
CCRF-CEM = system: CCRF-CEM
HL-60 = system: HL-60
HOP-92 = system: HOP-92
MOLT-4 = system: MOLT-4
NCI-H226 = system: NCI-H226
NCI-H460 = system: NCI-H460
NCI-H522 = system: NCI-H522
NCI/ADR-RES = system: NCI/ADR-RES
RPMI-8226 = system: RPMI-8226
SF-268 = system: SF-268
SN12C = system: SN12C
SNB-19 = system: SNB-19
SW-620 = system: SW-620
UACC-257 = system: UACC-257
UACC-62 = system: UACC-62
UO-31 = system: UO-31

| SMILES | GI50 (A549) | GI50 (ACHN) | GI50 (BT-549) | GI50 (CCRF-CEM) | GI50 (HL-60) | GI50 (HOP-92) | GI50 (MOLT-4) | GI50 (NCI-H226) | GI50 (NCI-H460) | GI50 (NCI-H522) | GI50 (NCI/ADR-RES) | GI50 (RPMI-8226) | GI50 (SF-268) | GI50 (SN12C) | GI50 (SNB-19) | GI50 (SW-620) | GI50 (UACC-257) | GI50 (UACC-62) | GI50 (UO-31) |
| --- | --- | --- | --- | --- | --- | --- | --- | --- | --- | --- | --- | --- | --- | --- | --- | --- | --- | --- | --- |
| Cc1cc2c(cc1Cl)S(=O)(=O)OC(c1ccc([N+](=O)[O-])cc1)=N2 | > 100 µM (inactive) | > 100 µM (inactive) | > 100 µM (inactive) | > 100 µM (inactive) | > 100 µM (inactive) | > 100 µM (inactive) | > 100 µM (inactive) | > 100 µM (inactive) | > 100 µM (inactive) | > 100 µM (inactive) | > 100 µM (inactive) | > 100 µM (inactive) | > 100 µM (inactive) | > 100 µM (inactive) | > 100 µM (inactive) | > 100 µM (inactive) | > 100 µM (inactive) | > 100 µM (inactive) | > 100 µM (inactive) |
| Nc1cc(N2CCCC2)nc(=O)n1-c1ccccc1 | > 100 µM (inactive) | > 100 µM (inactive) | > 100 µM (inactive) | > 100 µM (inactive) | > 100 µM (inactive) | > 100 µM (inactive) | > 100 µM (inactive) | 54.2 µM (inactive) | > 100 µM (inactive) | > 100 µM (inactive) | > 100 µM (inactive) | > 100 µM (inactive) | – | > 100 µM (inactive) | > 100 µM (inactive) | > 100 µM (inactive) | > 100 µM (inactive) | – | – |
| COc1ccc(CNC(=O)NCn2cc(-c3ccccc3)nn2)cc1 | > 100 µM (inactive) | > 100 µM (inactive) | > 100 µM (inactive) | > 100 µM (inactive) | > 100 µM (inactive) | > 100 µM (inactive) | > 100 µM (inactive) | – | > 100 µM (inactive) | > 100 µM (inactive) | > 100 µM (inactive) | > 100 µM (inactive) | > 100 µM (inactive) | > 100 µM (inactive) | > 100 µM (inactive) | > 100 µM (inactive) | > 100 µM (inactive) | – | – |
| CN(C)CCNc1ccc(NCCN(C)C)c2c1C(=O)c1ncsc1C2=O | 11.9 µM (inactive) | 8.2 µM (inactive) | 18.1 µM (inactive) | 3.08 µM (inactive) | – | 15.2 µM (inactive) | 1.94 µM (inactive) | 2.53 µM (inactive) | – | 11.6 µM (inactive) | 35.7 µM (inactive) | 10.6 µM (inactive) | 15.4 µM (inactive) | 10.9 µM (inactive) | 18.6 µM (inactive) | 9.82 µM (inactive) | 18.5 µM (inactive) | 11.4 µM (inactive) | 15.2 µM (inactive) |
| Clc1cc2ccccc2c2ccccc12 | 44 µM (inactive) | 82.2 µM (inactive) | 49.2 µM (inactive) | < 0.01 µM (active) | 35.2 µM (inactive) | 38.5 µM (inactive) | 69.2 µM (inactive) | > 100 µM (inactive) | 44.8 µM (inactive) | 33.8 µM (inactive) | > 100 µM (inactive) | 31.9 µM (inactive) | 74 µM (inactive) | 86.3 µM (inactive) | 43 µM (inactive) | 90.6 µM (inactive) | 55.2 µM (inactive) | 62.4 µM (inactive) | 97.3 µM (inactive) |
| COc1c(O)cc2c(c1O)C(=O)C1=C(CCCC1)C2=O | 26.1 µM (inactive) | 23 µM (inactive) | 23 µM (inactive) | 1.87 µM (inactive) | 8.24 µM (inactive) | 21.7 µM (inactive) | 4.8 µM (inactive) | 30.5 µM (inactive) | 27.1 µM (inactive) | 13 µM (inactive) | 17.3 µM (inactive) | 9.53 µM (inactive) | 24.4 µM (inactive) | 20.6 µM (inactive) | 31.5 µM (inactive) | 27.4 µM (inactive) | 34 µM (inactive) | 20.3 µM (inactive) | 7.24 µM (inactive) |
